Experimental findings from PubChem BioAssay (NCI) are described below.

Structures are written as SMILES.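 96-well plates; 48 h exposure; 5 concentrations. Endpoints by linear interpolation between flanking doses. Not reached: highest tested concentration assigned. GI50 marks 50% less growth. TGI denotes the concentration required for complete inhibition of growth.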 A value given as a limit tells only on which side of the number the result lay.

Test systems include SK-MEL-5 melanoma; HCT-116 colon; IGROV1 ovarian; A549 NSCLC; MALME-3M melanoma; NCI-H460 lung; OVCAR-5 ovarian; SNB-19 CNS; UACC-257 melanoma; RPMI-8226 leukemia.
What all share (assay): NCI tumour cell line growth inhibition, 48 h

As for `O=C(NCCCCN1CCOCC1)c1cc2ccccc2o1`, the GI50 with SK-MEL-5 melanoma, in the assay on HCT-116 colon, in the assay with IGROV1 ovarian, in the assay on A549 NSCLC, in the assay on MALME-3M melanoma and in the assay on NCI-H460 lung was more than 100 µM each time. Also, the GI50 with OVCAR-5 ovarian, in the assay with SNB-19 CNS and in the assay on UACC-257 melanoma was more than 100 µM in each case. The TGI with SK-MEL-5 melanoma, in the assay on HCT-116 colon, in the assay on IGROV1 ovarian, in the assay with A549 NSCLC, in the assay on MALME-3M melanoma and with NCI-H460 lung was more than 100 µM in each case. Besides, the TGI with OVCAR-5 ovarian, with SNB-19 CNS and in the assay on UACC-257 melanoma was more than 100 µM throughout.
For `Cc1c(C)n(CCCN2CCN(C)CC2)c2ccc(Oc3cccc(C(=O)N4CCN(CCc5ccc(F)cc5)CC4)c3)cc12`, the GI50 in the assay with SK-MEL-5 melanoma is 1.71 µM; in the assay on IGROV1 ovarian, 1.57 µM; in the assay on A549 NSCLC, 1.81 µM; in the assay with MALME-3M melanoma it was 1.78 µM; in the assay with NCI-H460 lung, 1.86 µM; in the assay with OVCAR-5 ovarian it was 1.58 µM. Also, the GI50 with SNB-19 CNS was 1.75 µM; in the assay on UACC-257 melanoma it was 1.88 µM. Besides, the TGI in the assay with SK-MEL-5 melanoma was determined as 3.08 µM; with IGROV1 ovarian it was 3.16 µM; in the assay with A549 NSCLC, 3.62 µM; in the assay with MALME-3M melanoma it was 3.32 µM; with NCI-H460 lung it was 3.45 µM; in the assay on OVCAR-5 ovarian, 3 µM. Further, the results for the TGI with SNB-19 CNS and in the assay with UACC-257 melanoma were 3.31 µM and 3.72 µM, respectively.
With `N#C/C(=C\c1cc(O)cc(O)c1)C(N)=O`, the TGI with HCT-116 colon, with IGROV1 ovarian, in the assay on A549 NSCLC, in the assay with MALME-3M melanoma, with RPMI-8226 leukemia and with NCI-H460 lung was more than 100 µM throughout. Further, the TGI with OVCAR-5 ovarian, with SNB-19 CNS and with UACC-257 melanoma was more than 100 µM in each case.
As to `O=c1c2c(nc3n1CCS3)[nH]c1cc([N+](=O)[O-])ccc12`, the GI50 with HCT-116 colon was more than 100 µM; in the assay on IGROV1 ovarian, 36.2 µM; in the assay on A549 NSCLC, more than 100 µM; with MALME-3M melanoma, more than 100 µM; in the assay on RPMI-8226 leukemia, more than 100 µM; with NCI-H460 lung it was more than 100 µM. Moreover, the GI50 in the assay on OVCAR-5 ovarian, in the assay on SNB-19 CNS and in the assay with UACC-257 melanoma was more than 100 µM each time. Further, the TGI in the assay with HCT-116 colon, with IGROV1 ovarian, in the assay on A549 NSCLC, with MALME-3M melanoma, with RPMI-8226 leukemia and in the assay with NCI-H460 lung was more than 100 µM in each case. In addition, the TGI in the assay on OVCAR-5 ovarian, in the assay on SNB-19 CNS and with UACC-257 melanoma was more than 100 µM throughout.
In the case of `Cc1cnc2ccc(C)c([N+](=O)[O-])c2c1NCCCN(C)C`, the TGI with HCT-116 colon, in the assay on A549 NSCLC, in the assay on MALME-3M melanoma, in the assay on RPMI-8226 leukemia, with NCI-H460 lung and in the assay with OVCAR-5 ovarian was more than 100 µM in each case. Further, the TGI in the assay with SNB-19 CNS and in the assay on UACC-257 melanoma was more than 100 µM in each case.
As for `CCOC(=O)c1cc(C(=O)c2ccc(OC)cc2)n2ccc(/C=C/c3cc[n+](CC(=O)c4ccc(OC)cc4)cc3)cc12`, the GI50 is 1.55 µM with HCT-116 colon; 1.74 µM in the assay on IGROV1 ovarian; 3.96 µM in the assay with A549 NSCLC; 1.67 µM in the assay with MALME-3M melanoma; 1.65 µM in the assay with RPMI-8226 leukemia; 1.56 µM with NCI-H460 lung. In addition, the GI50 in the assay on SNB-19 CNS is 1.73 µM. Further, the TGI in the assay on HCT-116 colon was 3.36 µM; with IGROV1 ovarian, 4.46 µM; in the assay on A549 NSCLC, more than 100 µM; in the assay on MALME-3M melanoma, 3.66 µM; in the assay with RPMI-8226 leukemia it was 4.85 µM; with NCI-H460 lung, 3.56 µM. This compound also displayed a TGI in the assay with SNB-19 CNS of 4.06 µM.
Take `COc1ccc(C(c2ccccc2)(c2ccc(OC)cc2)N2C(=O)NC3C(CCCCC(=O)NCCCCCCOP(OCCC#N)N(C(C)C)C(C)C)SCC32)cc1` (stereo not drawn): the TGI with SK-MEL-5 melanoma is 31 µM; with HCT-116 colon, 24.9 µM; in the assay on IGROV1 ovarian, 40.3 µM; in the assay on A549 NSCLC, 41.8 µM; in the assay on MALME-3M melanoma, 33.5 µM; in the assay on NCI-H460 lung, 33.8 µM. Besides, the TGI in the assay on UACC-257 melanoma amounted to 42.6 µM.
As to `O=C1NC(=C(Cl)Cl)/C(=N/S(=O)(=O)N2CCCCC2)N1`, the GI50 with HCT-116 colon is 1.85 µM; with A549 NSCLC, 6.85 µM; with MALME-3M melanoma, 1.82 µM; in the assay on RPMI-8226 leukemia, 0.553 µM; in the assay with NCI-H460 lung, 3.27 µM; in the assay with OVCAR-5 ovarian, 1.87 µM. Besides, the figures for the GI50 in the assay with SNB-19 CNS and with UACC-257 melanoma were 2.38 µM and 2.43 µM, respectively. Besides, the TGI turned out to be 3.39 µM in the assay with HCT-116 colon; 22.2 µM in the assay on A549 NSCLC; 3.49 µM with MALME-3M melanoma; 4.23 µM in the assay with RPMI-8226 leukemia; 11.2 µM in the assay on NCI-H460 lung; 3.63 µM in the assay with OVCAR-5 ovarian. Also, the TGI with SNB-19 CNS was determined as 5.34 µM; with UACC-257 melanoma, 7.07 µM.
On to `O=C(CSc1nc2c(n1Nc1ccccc1)-c1ccccc1SC2)Nc1nc(-c2ccc(Cl)cc2)cs1`, for which the GI50 in the assay on SK-MEL-5 melanoma is more than 100 µM; with HCT-116 colon, 6.37 µM; with IGROV1 ovarian, 12.5 µM; in the assay on RPMI-8226 leukemia it was more than 100 µM; in the assay on OVCAR-5 ovarian, more than 100 µM; in the assay with SNB-19 CNS, 15.3 µM. Also, the GI50 in the assay with UACC-257 melanoma was more than 100 µM. Further, the TGI is more than 100 µM in the assay on SK-MEL-5 melanoma; more than 100 µM in the assay on HCT-116 colon; 78.2 µM in the assay with IGROV1 ovarian; more than 100 µM in the assay on RPMI-8226 leukemia; more than 100 µM in the assay on OVCAR-5 ovarian; 63.5 µM in the assay on SNB-19 CNS. This compound also gave a TGI with UACC-257 melanoma of more than 100 µM.
For the compound `COc1ccc(C(=O)C(CN(C)C)CN(C)C)cc1`, the GI50 was 15.3 µM with SK-MEL-5 melanoma; 1.3 µM in the assay on HCT-116 colon; 15.4 µM in the assay on IGROV1 ovarian; 19.1 µM in the assay with A549 NSCLC; 2.45 µM with RPMI-8226 leukemia; 19.2 µM in the assay on NCI-H460 lung. Also, the figures for the GI50 in the assay on OVCAR-5 ovarian, in the assay with SNB-19 CNS and with UACC-257 melanoma were 12.6 µM, 16.3 µM and 2.14 µM, respectively. Further, the TGI came out at 29 µM with SK-MEL-5 melanoma; 2.63 µM in the assay with HCT-116 colon; 39.2 µM with IGROV1 ovarian; 43.4 µM with A549 NSCLC; 6.67 µM in the assay on RPMI-8226 leukemia; 40.1 µM with NCI-H460 lung. Also, the TGI with OVCAR-5 ovarian turned out to be 30.8 µM; with SNB-19 CNS, 33.1 µM; in the assay with UACC-257 melanoma, 8.48 µM.
